From patent EP0887348A1, “Bis-Indole derivatives having antimetastatic activity, a process for their preparation and pharmaceutical compositions containing them” (Boehringer Mannheim Italia S.p.A., priority 1997, dated 1998)

System: Lewis Lung (3LL) murine carcinoma
Format: in vivo, Female mice C57BL/6N
Description: The "in vivo" testing was performed against the Lewis Lung (3LL) murine carcinoma according to the following protocol.
Female mice C57BL/6N were inoculated intrafootpad with tumor fragments at day 0. At day 11 the mice were anesthetized and their tumors removed surgically proximal to the popliteale limph nodes. Animals were treated intraperitoneally with the compounds of the invention from one day after surgery until the end of the experiment, day 22 (post-surgery treatment at days 12-15, 18-22). All the compounds were suspended in 0.5% methylcellulose. The mean number of the pulmonary metastases and the mean weight thereof were determined. The toxicity of the compounds of the invention at the administered dosage was also checked, as number of deaths/total no. of treated mice by the end of the experiment.

In the case of `c1cncc(C(c2c[nH]c3ccccc23)c2c[nH]c3ccccc23)c1` [example 1, 3-[bis(indol-3-yl)methyl]pyridine], the Toxicity (mouse, in vivo, ip, 200 mg/kg/day) is reported as 0/9, the “Mean weight (mg) of metastases (S.D.)” value (pulmonary metastases, 200 mg/kg/day intraperitoneally, post-surgery treatment day 12-15, 18-22 after tumor injection, control 197.6 (55.0)) is reported as 99.2 (63.5) mg and the “Mean No. of metastases (S.D.)” value (pulmonary metastases, 200 mg/kg/day intraperitoneally, post-surgery treatment day 12-15, 18-22 after tumor injection, suspended in 0.5% methylcellulose, control 65.9 (11.7)) is reported as 31.4 (14.0).
